# Laboratory results from US20090143279A1 (priority 2007, published 2009).
# Read-outs that look alike come from different tables or passages of the source.
# What was measured:
# [1] = test system: mitochondrial membrane potential; type: cell-based, mouse
# [2] = test system: reactive oxygen species; type: cell-based, mouse
# [3] = test system: OXPHOS gene expression; type: cell-based, mouse
# [4] = test system: nuOXPHOS transcripts; type: cell-based, mouse
# [5] = test system: mtOXPHOS transcripts; type: cell-based, mouse
# [6] = test system: cytochrome c; type: cell-based, mouse
# [7] = test system: C2C12 myotubes
# [8] = test system: cellular dehydrogenase activity
# [9] = Conc 20 μM, normalized score vs mock-treated (DMSO) wells
# [10] = composite Z-score vs mock-treated (DMSO) wells, Conc 20 μM
# [11] = composite Z-score vs DMSO, Conc 20 μM
# [12] = 20 μM, composite Z-score vs DMSO
# [13] = 18.5 μM, composite Z-score vs DMSO
# [14] = composite Z-score vs DMSO wells, Conc 20 μM
# [15] = normalized composite Z-score vs mock-treated (DMSO) wells, Conc 20 μM
# [16] = 8.76 μM, composite Z-score vs DMSO
# [17] = Table 4, C2C12 myotubes, 48 h, composite Z-score
structure (smiles),measurement,setting,value
COc1ccc2c(c1)OC/C(=C\c1ccc(OC)c(O)c1)C2=O [sappanone A dimethyl ether],ΔΨm (composite Z-score),[1]; [9],0.017
same,ROS (composite Z-score),[2]; [9],−2.429
same,GE-HTS (composite Z-score),[3]; [9],0.450
same,nucOX (composite Z-score),[4]; [9],0.495
same,mitoOX (composite Z-score),[5]; [9],0.248
same,cyt c (composite Z-score),[6]; [9],−0.664
same,Viability (composite Z-score),[7]; [9],−1.045
same,MTT (composite Z-score),[8]; [9],−1.865
Cc1cc(=O)c2c(O)c(C)c(O)cc2o1 [eugenitol],ΔΨm,[1]; [10],−0.541
same,ROS,[2]; [10],1.256
same,GE-HTS,[3]; [10],0.471
same,nucOX,[4]; [10],0.168
same,mitoOX,[5]; [10],0.962
same,cyt c,[6]; [10],−0.041
same,Viability,[7]; [10],−0.575
same,MTT,[8]; [10],−1.139
NCCCCCN [cadaverine],ΔΨm,[1]; [11],−0.730
same,ROS,[2]; [11],0.160
same,GE-HTS,[3]; [11],−0.553
same,nucOX,[4]; [11],−0.667
same,mitoOX,[5]; [11],−0.205
same,cyt c,[6]; [11],−0.135
same,Viability,[7]; [11],−1.003
same,MTT,[8]; [11],−0.915
CC1(C)[C@H]2CC[C@@]1(C)C(=O)C2 [1r-camphor],ΔΨm,[1]; [12],−0.794
same,ROS,[2]; [12],0.042
same,GE-HTS,[3]; [12],0.073
same,nucOX,[4]; [12],0.107
same,mitoOX,[5]; [12],0.023
same,cyt c,[6]; [12],0.372
same,Viability,[7]; [12],−0.744
same,MTT,[8]; [12],−0.402
NC(=O)C1(O)C[C@@H](O)C(O)[C@H](O)C1 (stereo partly shown) [quinamide],ΔΨm (composite Z-score),[1]; [9],−0.518
same,ROS (composite Z-score),[2]; [9],0.405
same,GE-HTS (composite Z-score),[3]; [9],−0.139
same,nucOX (composite Z-score),[4]; [9],−0.529
same,mitoOX (composite Z-score),[5]; [9],0.735
same,cyt c (composite Z-score),[6]; [9],0.359
same,Viability (composite Z-score),[7]; [9],−0.397
same,MTT (composite Z-score),[8]; [9],−1.034
CO[C@H]1C[C@H](O[C@H]2CC[C@]3(C=O)[C@H]4CC[C@]5(C)[C@@H](C6=CC(=O)OC6)CC[C@]5(O)[C@@H]4CC[C@]3(O)C2)O[C@H](C)[C@H]1O [cymarin],ΔΨm (composite Z-score),[1]; [9],−0.996
same,ROS (composite Z-score),[2]; [9],0.695
same,GE-HTS (composite Z-score),[3]; [9],−0.473
same,nucOX (composite Z-score),[4]; [9],−0.412
same,mitoOX (composite Z-score),[5]; [9],−0.464
same,cyt c (composite Z-score),[6]; [9],0.356
same,Viability (composite Z-score),[7]; [9],−1.155
same,MTT (composite Z-score),[8]; [9],−1.849
COc1c2occc2cc2ccc(=O)oc12 [methoxy-8-psoralen],ΔΨm,[1]; [13],0.605
same,ROS,[2]; [13],0.103
same,GE-HTS,[3]; [13],0.803
same,nucOX,[4]; [13],0.952
same,mitoOX,[5]; [13],0.340
same,cyt c,[6]; [13],0.227
same,Viability,[7]; [13],1.463
same,MTT,[8]; [13],−0.371
CC(=O)C(=Cc1ccccc1)CC(=O)O [3-benzylidenyl-levulinic acid],ΔΨm (composite Z-score),[1],−0.170
same,ROS (composite Z-score),[2],0.382
same,GE-HTS (composite Z-score),[3],−0.639
same,nucOX (composite Z-score),[4],−0.553
same,mitoOX (composite Z-score),[5],−0.647
same,cyt c (composite Z-score),[6],−0.165
same,Viability (composite Z-score),[7],−0.431
same,MTT (composite Z-score),[8],−0.665
C[C@H](C[C@@H](O)[C@@H]1OC1(C)C)[C@@H]1CC[C@]2(C)C3=CC[C@H]4C(C)(C)C(=O)CC[C@]4(C)[C@H]3CC[C@@]12C (stereo in doubt) [niloticin],ΔΨm,[1]; [10],0.461
same,ROS,[2]; [10],0.817
same,GE-HTS,[3]; [10],0.543
same,nucOX,[4]; [10],0.648
same,mitoOX,[5]; [10],0.151
same,cyt c,[6]; [10],0.136
same,Viability,[7]; [10],1.304
same,MTT,[8]; [10],−0.481
Cc1cc(NC(=O)C2=C(O)c3ccccc3S(=O)(=O)N2C)no1 [isoxicam],ΔΨm,[1]; [14],−1.091
same,ROS,[2]; [14],0.030
same,GE-HTS,[3]; [14],−0.423
same,nucOX,[4]; [14],−0.221
same,mitoOX,[5]; [14],−0.770
same,cyt c,[6],0.177
same,cyt c,[6]; [14],−0.169
same,Viability,[7]; [14],0.010
same,MTT,[8]; [14],−0.152
"O=C(Oc1cc(O)cc2c1C[C@@H](OC(=O)c1cc(O)c(O)c(O)c1)[C@@H](c1cc(O)c(O)c(O)c1)O2)c1cc(O)c(O)c(O)c1 [epigallocatechin 3,5-digallate]",ΔΨm,[1]; [15],−2.135
same,ROS,[2]; [15],0.118
same,GE-HTS,[3]; [15],−1.581
same,nucOX,[4]; [15],−1.625
same,mitoOX,[5]; [15],−1.133
same,cyt c,[6]; [15],1.040
same,Viability,[7]; [15],0.969
same,MTT,[8]; [15],−1.667
NC[C@@H]1O[C@H](O[C@H]2[C@@H](O)[C@H](O[C@@H]3[C@@H](O)[C@H](N)C[C@H](N)[C@H]3O[C@H]3O[C@H](CN)[C@@H](O)[C@H](O)[C@H]3N)O[C@@H]2CO)[C@H](N)[C@@H](O)[C@@H]1O [neomycin],ΔΨm,[1]; [11],−0.599
same,ROS,[2]; [11],1.203
same,GE-HTS,[3]; [11],0.817
same,nucOX,[4]; [11],0.598
same,mitoOX,[5]; [11],1.160
same,cyt c,[6]; [11],0.734
same,Viability,[7]; [11],−1.255
same,MTT,[8]; [11],−1.478
COC(=O)c1c(OC)cc2c(c1C)Oc1c(Cl)c(O)c(Cl)c(C)c1C(=O)O2 [gangaleoidin],ΔΨm,[1]; [15],−1.233
same,ROS,[2]; [15],1.356
same,GE-HTS,[3]; [15],−0.512
same,nucOX,[4]; [15],−0.587
same,mitoOX,[5]; [15],−0.310
same,cyt c,[6]; [15],−0.876
same,Viability,[7]; [15],0.889
same,MTT,[8]; [15],−1.213
CC(C)C[C@H]1C(=O)N2CCC[C@H]2[C@]2(O)O[C@](NC(=O)[C@@H]3C=C4c5cccc6[nH]c(Br)c(c56)C[C@H]4N(C)C3)(C(C)C)C(=O)N12 [bromocriptine],ΔΨm,[1]; [12],0.037
same,ROS,[2]; [12],0.176
same,GE-HTS,[3]; [12],0.006
same,nucOX,[4]; [12],0.199
same,mitoOX,[5]; [12],−0.322
same,cyt c,[6]; [12],−0.064
same,Viability,[7]; [12],1.142
same,MTT,[8]; [12],−1.667
CC(=O)O[C@H](CC(=O)[O-])C[N+](C)(C)C [acetylcarnitine],ΔΨm,[1]; [14],−0.930
same,ROS,[2]; [14],0.476
same,GE-HTS,[3]; [14],−1.051
same,nucOX,[4]; [14],−1.015
same,mitoOX,[5]; [14],−0.943
same,cyt c,[6]; [14],−0.192
same,Viability,[7]; [14],−0.980
same,MTT,[8]; [14],−1.275
Cc1cc(N)c2ccccc2[n+]1CCCCCCCCCC[n+]1c(C)cc(N)c2ccccc21 [dequalinium],ΔΨm,[1]; [16],−3.242
same,ΔΨm,[1]; [12],−2.506
same,ROS,[2]; [16],−3.041
same,ROS,[2]; [12],−3.055
same,GE-HTS,[3]; [16],−1.322
same,GE-HTS,[3]; [12],−1.733
same,nucOX,[4]; [16],−0.852
same,nucOX,[4]; [12],−1.087
same,mitoOX,[5]; [16],−2.024
same,mitoOX,[5]; [12],−2.705
same,cyt c,[6]; [16],−4.108
same,cyt c,[6]; [12],−3.241
same,Viability,[7]; [16],−3.696
same,Viability,[7]; [12],−3.176
same,MTT,[8]; [16],−5.151
same,MTT,[8]; [12],−4.446
"O=c1cc(-c2cc(O)c(O)c(O)c2)oc2cc(O)cc(O)c12 [hieracin, reference compound]",ΔΨm (composite Z-score),[1]; [9],−1.902
same,ΔΨm,"[1]; Table 4, C2C12 myotubes, 48 h, JC-1, composite Z-score",−1.902
same,ROS (composite Z-score),[2]; [9],−0.329
same,ROS,[2]; [17],−0.329
same,GE-HTS (composite Z-score),[3]; [9],−0.648
same,nucOX (composite Z-score),[4]; [9],−0.421
same,mitoOX (composite Z-score),[5]; [9],−1.009
same,cyt c (composite Z-score),[6]; [9],0.057
same,Viability (composite Z-score),[7]; [9],1.425
same,Viability,[7]; [17],1.425
same,MTT (composite Z-score),[8]; [9],−0.557
same,MTT,[8]; [17],−0.557
CC(C)=CC1C(CO)C1(C)C (stereo not shown) [chrysanthemyl alcohol],ΔΨm,[1]; [15],−0.734
same,ROS,[2]; [15],0.345
same,GE-HTS,[3]; [15],0.456
same,nucOX,[4]; [15],0.495
same,mitoOX,[5]; [15],0.331
same,cyt c,[6]; [15],0.264
same,Viability,[7]; [15],0.604
same,MTT,[8]; [15],−0.004
COc1ccc([C@@H]2CC(=O)c3c(O)cc(O[C@@H]4O[C@H](CO[C@@H]5O[C@@H](C)[C@H](O)[C@@H](O)[C@H]5O)[C@@H](O)[C@H](O)[C@H]4O)cc3O2)cc1O [hesperidin],ΔΨm,[1]; [12],−0.251
same,ROS,[2]; [12],−0.281
same,GE-HTS,[3]; [12],−0.618
same,nucOX,[4]; [12],−0.106
same,mitoOX,[5]; [12],−1.561
same,cyt c,[6]; [12],0.621
same,Viability,[7]; [12],0.694
same,MTT,[8]; [12],−0.992
COC(=O)[C@H](O)[C@H]1C(C)(C)[C@H](OC(C)=O)[C@@H]2CC3=C4CC(=O)O[C@@H](c5ccoc5)[C@]4(C)CC[C@@H]3[C@@]1(C)C2=O [swietenolide-3-acetate],ΔΨm,[1]; [10],1.006
same,ROS,[2]; [10],0.237
same,GE-HTS,[3]; [10],−1.057
same,nucOX,[4]; [10],−1.093
same,mitoOX,[5]; [10],−0.838
same,cyt c,[6]; [10],0.668
same,Viability,[7]; [10],−0.503
same,MTT,[8]; [10],−0.776
Cc1ccc(/N=C/N(C)/C=N/c2ccc(C)cc2C)c(C)c1 [amitraz],ΔΨm,[1]; [11],−0.741
same,ROS,[2]; [11],0.867
same,GE-HTS,[3]; [11],−0.526
same,nucOX,[4]; [11],−0.299
same,mitoOX,[5]; [11],−0.814
same,cyt c,[6]; [11],0.292
same,Viability,[7]; [11],−1.025
same,MTT,[8]; [11],−1.572
CC1(C)S[C@@H]2[C@H](NC(=O)COc3ccccc3)C(=O)N2[C@H]1C(=O)O [penicillin V],ΔΨm,[1]; [12],−0.564
same,ROS,[2]; [12],0.748
same,GE-HTS,[3]; [12],−0.849
same,nucOX,[4]; [12],−0.844
same,mitoOX,[5]; [12],−0.654
same,cyt c,[6]; [12],0.258
same,Viability,[7]; [12],0.062
same,MTT,[8]; [12],−1.319
CSCC[C@H](NC=O)C(=O)N[C@@H](CC(C)C)C(=O)N[C@@H](Cc1ccccc1)C(=O)O [N-formylmethionyl-leucylphenylalanine],ΔΨm,[1]; [14],0.476
same,ROS,[2]; [14],1.017
same,GE-HTS,[3]; [14],−0.370
same,nucOX,[4]; [14],−0.517
same,mitoOX,[5]; [14],−0.051
same,cyt c,[6]; [14],0.374
same,Viability,[7]; [14],0.354
same,MTT,[8]; [14],−1.240
CC1(C)CC[C@]2(C(=O)O)CC[C@]3(C)C(=CC[C@@H]4[C@@]5(C)CC[C@H](O)[C@@](C)(CO)[C@@H]5CC[C@]43C)[C@@H]2C1 [hederagenin],ΔΨm,[1],−0.901
same,ROS,[2],0.385
same,GE-HTS,[3],−0.654
same,nucOX,[4],−0.630
same,mitoOX,[5],−0.540
same,cyt c,[6],0.945
same,Viability,[7],0.310
same,MTT,[8],−1.259
